Patent US20240325319A1, “INHIBITORS OF AMYLOID BETA OLIGOMERIZATION AND THERAPEUTIC USES THEREOF” (Northwestern University, priority 2021, published 2024)
Values joined by “and” are separate entries in the source; they are usually repeats but may differ in a detail not shown here. Identical values can stand only once. “Also recorded” adds a separate entry of the source.

Tests used:
[1] = tested on: total Aβ species; assay: Total Aβ species in neuronal cultures (6E10 immunofluorescence); format: cell-based, rat; conditions: NU-9 3 μM, 30 min, then Aβ monomer 500 nM
Protocol: FIG. 12. […] Mature hippocampal neurons were treated with NU-9 (3 μM, 30 min), then with Aβ monomer (500 nM, 30 min). These were labelled with 6E10 (anti-total Aβ, green) and MAP2 (anti-dendrite). Total number of Aβ particles per images as well as fluorescence intensity of Aβ signal (IntDen) was quantified).
To follow up on this, we treated neurons with NU-9 (3 μM, 30 min) followed by Aβ monomer (500 nM, 30 min) and attempted to observe total Aβ species by dot blot. […] So, instead of using dot blot, we used immunofluorescence, labelling treated neurons for total Aβ species. Using this protocol, we were able to avoid interaction of the antibody with cell culture media, allowing for specific labelling.

[2] = target: T1, Aβ42 (Homo sapiens, UniProt P05067); assay: AβO formation from Aβ monomer in the absence of cells (dot blot, coverslips, fresh or conditioned media); format: biochemical
T1 construct: then treated with amyloid beta 1-42 (Aβ) monomer
Protocol: FIG. 5. A) NU-9 and Aβ were combined in F12 media, in the absence of cells, and incubated at 37° C. B) The concentration of AβOs was probed with NU2 antibody via dot blot after 24 hours in the conditions containing 3 μM NU-9 with or without Aβ.
FIG. 6. In dishes without cells, but in conditions that mimicked cell culture, 3 μM NU-9 and 500 nM Aβ42 for 30 minutes fixed with 3.7% formaldehyde and stained for AβOs (NU2, green) and mounted on slides before imaging at 63×.
FIG. 9. The effect of NU-9 requires the presence of cells. Conditioned media was collected from mature hippocampal neuron. DMSO control (Control), Aβ monomer (Aβ), or NU-9 and then Aβ (NU-9+Aβ in cond. media) were added, then concentration of AβOs were analyzed by dot blot. Conditioned media was also collected from neurons treated with NU-9, then Aβ was added to this (Media from NU-9 in cells+Aβ). […] Standard curve was created in media using 0-1000 fmol AβOs. The dot blot was labelled with NU2 (anti-AβO).
FIG. 10. […] (Conditioned Media) A dot blot probed with NU2 was used to measure AβO abundance in solutions of conditioned media to which DMSO vehicle (control), Aβ, and NU-9 followed by Aβ were added for 30 min each. The bottom row corresponds to samples in which cells were treated with NU-9 for 30 min, then extracellular media was removed, and Aβ was added to the media for 30 min. The standard curve at the top was made from 0-1000 fmol preformed AβOs. (Fresh Media) A dot blot probed with NU2 was used to measure AβO abundance in solutions of culture media to which DMSO vehicle (control), Aβ, and NU-9 (3-300 μM) followed by Aβ were added for 30 min each. Each of these solutions was prepared in triplicate. The standard curve at the top was made from 0-1000 fmol preformed AβOs.
In the absence of cells, NU-9 has no effect on AβO formation. […] Next, a follow-up experiment was conducted using conditions that more closely mimicked those of cell culture. Coverslips were coated, as usual for cell culture, with poly-D-lysine, and then placed into culture dishes with media. No cells were added. Then 3 μM NU-9 and 500 nM AβOs were added for 30 min. In this assay, the previous result was replicated.
Instead, NU-9 exerts an effect at the cell membrane or intracellularly.

[3] = tested on: AβOs bound to neurons; assay: AβOs bound to dendrites of hippocampal neurons treated with Aβ42 monomer (immunofluorescence, NU2/NU4); format: cell-based, rat
Protocol: Neurons were pre-treated with 3 μM NU-9 for 30 min, then treated with Aβ42 monomer for 24 hr. Cells were fixed with 3.7% formaldehyde and stained for AβOs (NU4, green), tau phosphorylated at Ser396 (pSer396, red) and mounted on slides before imaging.
Cells were fixed with 3.7% formaldehyde and stained for AβOs (NU4, green), tau phosphorylated at Thr205 (pThr205, red), and nuclei (DAPI, blue) and mounted on slides before imaging.
FIG. 3. Neurons were pre-treated with 3 μM NU-9 for 30 min, then treated with Aβ42 monomer for 30 min. Cells were fixed with 3.7% formaldehyde and stained for AβOs (NU2, green), β-II tubulin (TUBB3, red), and nuclei (DAPI, blue) and mounted on slides before imaging.
FIG. 4. E18 hippocampal neurons were cultured until 21 div and pre-treated with 3, 15, or 30 μM NU-9 for 30 minutes, followed by treatment with 500 nM Aβ42 for 30 minutes. Cells were fixed with 3.7% formaldehyde and stained for AβOs (NU2, green), […] (red) and nuclei (DAPI, blue), and mounted on slides before imaging at 63×.
NU-9 reduces the number of amyloid beta oligomers bound to neurites. Primary rat hippocampal neurons in cell culture were pre-treated with NU-9 for 30 minutes and then treated with amyloid beta 1-42 (Aβ) monomer. […] To characterize the dose-response effect of NU-9 on AβO formation, cells were pretreated with increasing doses of NU-9 (3, 15, and 30 μM), and then treated with Aβ for 30 minutes.
The decrease was 81% (p=0.0005). We further characterized the effect of NU-9, to narrow down potential candidate mechanisms for this effect.

[4] = tested on: AβOs bound to neurons; assay: as above; format: cell-based, rat; remark: listed apart in the source

T1 sequence (P05067 672-713): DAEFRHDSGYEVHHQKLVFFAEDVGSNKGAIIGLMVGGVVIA

## C[C@H](Oc1cc(C(F)(F)F)cc(C(F)(F)F)c1)C1CC(=O)CC(=O)C1 [NU-9, (S)-5-(1-(3,5-bis(trifluoromethyl)phenoxy)ethyl)cyclohexane-1,3-dione]
[1]
  total Aβ species (particles, IntDen): does not reduce total Aβ species observable in neuronal cultures
[2]; 3 μM NU-9 and Aβ in F12 media, 37° C., 24 hours
  AβO concentration by NU2 dot blot, no cells: no change in AβO formation was observed; also recorded: No significant difference was observed
[2]; NU-9 3 μM, 30 min added to media, Aβ monomer 500 nM, 30 min
  AβOs formed from Aβ monomer in conditioned media of untreated cells: did not reduce the number of AβOs formed from Aβ monomer; also recorded: Aβ was not reduce in any treatment condition
[2]; NU-9 3-300 μM followed by Aβ, 30 min each
  AβO formation from Aβ monomer in fresh media (dot blot): did not reduce ABO formation directly; also recorded: does not reduce AβO formation from Aβ monomer in cell-free solution
[2]; cells treated 3 μM NU-9 30 min, media removed, Aβ added 30 min
  AβOs formed from Aβ monomer in conditioned media from cells treated with NU-9: also did not reduce the number of AβOs formed from Aβ monomer in the absence of cells
[2]; poly-D-lysine coverslips in media, 3 μM NU-9 and 500 nM Aβ42, 30 min
  number of AβOs bound to coverslips, no cells: did not affect AβO formation; also recorded: did not significantly affect the number of AβOs bound to coverslips
[3]; 3 μM NU-9 pre-treatment 30 min, then Aβ42 monomer 24-26 hr
  number of AβOs bound at dendrites: significantly decreased the number of AβOs bound at dendrites; also recorded: able to reduce AβO binding in neurons treated with Aβ monomer
[3]; 3 μM NU-9 pre-treatment 30 min, then Aβ monomer 500 nM, 30 min
  AβOs bound to neurons / formation of neuron-binding AβOs: mitigated the formation of neuron-binding AβOs; also recorded: significantly reduced AβOs bound to neurons; also recorded: significantly reduced the formation of neuron binding AβOs
[3]; 3, 15, or 30 μM NU-9 30 min, then 500 nM Aβ42 30 min
  dose-response of AβO suppression (visual analysis of images): reduced more extensively at higher doses of NU-9; also recorded: More extensive suppression of AβOs was observed at higher concentrations of NU-9
[3]; NU-9 3 μM, 30 min prior to Aβ monomer 500 nM, 30 min or 24 h
  reduction in AβOs at synapses compared to treatment with Aβ monomer alone: 81% and 55-80%
[3]; NU-9 30 min pre-treatment, Aβ monomer 30 min or 24 h
  number of AβOs bound to neurons: reduces the number of bound amyloid beta oligomers; also recorded: dramatically decreased the number of Aβ oligomers (AβOs) bound to neurons; also recorded: marked reduction in AβOs at synapses; also recorded: effectively reduced the number of pathological species of AβOs
[4]; 100 nM bafilomycin A 30 min, NU-9 3 μM 30 min, Aβ monomer 500 nM 30 min
  effect of NU-9 on neuron-binding AβOs in the presence of lysosome inhibitor: unable to do so; also recorded: abolished in the presence of a lysosome acidification inhibitor
[4]; NU-9 pre-treatment, washout, then Aβ 500 nM, 30 min
  AβOs bound to dendrites when NU-9 is washed out prior to Aβ monomer: leads to a reduction in AβOs bound to dendrites; also recorded: maintained even when NU-9 was washed out; also recorded: reduced the number of AβOs bound to dendrites; also recorded: remains effective even when it is washed out
